Assay [1] relates to Gli3. Put plainly: Localization of overexpressed GFP-tagged Gli3 in HeLa cells. The format is cell-based. Particulars: GFP-tagged Gli3-overexpressing HeLa cells. Here is the method: 1×10^5 HELA cells per well of a 6-well plate were transfected with Qiagen Polyfect transfection reagent according to the manufacturer's instructions. The ratio of the amount of DNA to the amount of polyfect transfection reagent was 3 μg DNA/10 μl Polyfect. Constructs used for expression in HELA were the following: GFP-GLI3 (aa 18-1549), GLI3-GFP (aa 1-1522), MYC-GLI3 (aa 18-1596), FLAG-GLI3 (aa18-1596), MYC-B-BOX1 (aa 110-167 of the MID1 protein), ALPHA4-V5 (aa 1-339). 24 h after transfection immunofluorescence was performed. GFP-constructs were treated as described in Schweiger et al., 1999. Immunofluorescence with MYC-tagged and FLAG-tagged constructs was done according to Trockenbacher et al., 2001. FLAG-tagged constructs were detected with anti-FLAG-antibody diluted 1:500, the secondary antibody FITC-antimouse was diluted 1:1000. For MYC-tagged constructs anti-MYC-antibody 1:300 and CY3-antirabbit 1:1000 were used. […]
Overexpressed Gli3 is predominantly localized in the nucleus (FIG. 10, top left).

The test system of assay [2] is Gli3. The experiment in a line: Localization of GFP-GLI3 in cultured U373MG cells. The format is cell-based. Conditions: 24 hours after transfection, 100 cells counted. The method, then:
COS7-HELA- and U373MG-cells were transfected using PolyFect Transfection Reagent (Qiagen, cat. no. 301107) according to the manufacturer's instructions. Gli3 cDNA was cloned into pEGFP-C1 and pEGFP-N3 vectors (Clontech) respectively. 100 transfected cells per experiment (Gli3-GFP, GFP-Gli3, Gli3-GFP+myc-MID1, GFP-Gli3+myc-MID1, Gli3-GFP+myc-BBox1, GFP-Gli3+myc-BBox1) were counted and analysed for Gli3 localization. Experiments were repeated twice. […] PCMV-Tag3 vector from Stratagene was used for myc-MID1 and myc-BBox1 overexpression.

The subject of another assay is tau protein. The experiment in a line: Tau-1 and pan-Tau immunofluorescence in transfected postnatal sympathetic neurons. The format is cell-based, rat. Particulars: compared to non-transfected neurons = 100%, two days after transfection. The method, then: Peripheral sympathetic neurons were obtained from postnatal day 1-3 rats. […] Following mechanical dissociation the cell suspension was filtered through a 40 μm nylon mesh and seeded at 6 SCGs per well into uncoated Falcon dishes for preplating purposes. After 4 hours neurons were transferred into glass floor dishes (Willco Wells B.V., gwst 3522, 3.8 cm^2 area/dish) coated with poly-D-lysine/laminin. Neurons were maintained in RPMI medium containing antibiotics, N2 additive (Invitrogen) and 100 ng/ml nerve growth factor (NGF; Sigma) at 37° C. in a humidified atmosphere with 5% CO2.
Neurons were transfected 2 hours after seeding applying the biolistic approach. This method uses a hand held gun to bombard dissociated neurons at high velocity with micron-size gold particles loaded with DNA. The coating of gold particles with DNA was achieved using a modification of the manufacturer's instructions (Bio-Rad Laboratories). For preparation of 35 cartridges 25 mg gold particles (1.6 μm diameter) were suspended in 50 μl of 0.05 M spermidine. After vortexing and sonication for 5 seconds, 50 μg plasmid DNA dissolved in 50 μl TE buffer was added (for co-transfection experiments, 80 μg were used, i.e., 40 μg Plasmid I+40 μg Plasmid 2). The amount of gold particles and DNA corresponds to a microcarrier loading quantity (MLQ) of about 0.7 (mg/cartridge) and to a DNA loading ratio (DLR) of 2 (μg/mg) for single transfection experiments. DNA, spermidine and gold were then mixed for 5 sec in a variable speed vortexer. At low vortexing speed, 50 μl 1 M CaCl2 was added dropwise to the mixture for association of DNA with the gold particles followed by precipitation for 10 min at room temperature. The supernatant was removed and the pellet rinsed with 800 μl of 100% ethanol. Washing was repeated two times with centrifugation steps at 3000 g between each wash. […]
A fully motorized Zeiss Axiovert 100M microscope equipped for inverted fluorescence was used for visualization of fluorescent neurons. […]

The test system of a further assay is patched gene. Put plainly: Patched-specific semiquantitative RT-PCR of HeLa cells. Particulars: compared to mock-transfected cells. The format is cell-based. The method, then: One of the most important targets of the Gli3 transcription factor is the patched gene. In order to analyse HeLa cells for Gli3 activity after treatment with the different molecules, semiquantitative RT-PCR of cells overexpressing the B-Box1 and the α4 protein was carried out (FIG. 13). HeLa cells have previously been tested for Gli3-, Gli1 (another target of the Gli3 transcription factor) and patched-expression.

Where no end group is shown, it is not given here.

For “B-Box1: peptide derived from the MID1 domain that is responsible for α4 binding (amino acids 108-165), expressed from plasmid (ANTMTSAEKVLCQFCDQDPAQDAVKTCVTCEVSYCDECLKATHPNKKPFTGHRLIEPI; cysteine pairing not given here; also: myc tag; UniProt O15344 108-165, looked up, fragment)”, in the assay on Gli3 [1], the Gli3 localization result was “significant retention of the active form of Gli3 in the cytosol”. The GFP-GLI3 localization entry is reported as “significant change of GFP-GLI3 from nucleus to cytosol” in the assay on Gli3 [2] (listed as B-BOX1), “significant change from the nucleus to the cytosol” in the assay with Gli3 [2] (listed as BBox1) and “significant Bbox1-dependent change of Gli3 localization” in the assay on Gli3 [2] (listed as Bbox1). In addition, the figures for the “Tau-1 immunoreactivity (dephosphorylated tau)” value in the assay on tau protein (listed as B-BOX1) and in the assay on tau protein (listed as Bbox1) were “significantly increased” and “pronounced increase in fluorescence”, respectively. Moreover, the patched message result with patched gene is “significant reduction of the patched message”.

The values are drawn from patent US8202696B2, “Means for use in treating diseases correlated with or caused by non-physiological levels of microtubule-associated PP2Ac” (Max-Planck-Gessellschaft zur Forderung der Wissenschaften …, priority 2002, dated 2012).
